Numbered stars: 1 amine (or outer) side, 2 acyl side, 3 side chain; on linkers, the order of the positions; unused ones are H or OH. Square brackets hold non-standard residues; d marks the D form. Peptide text beside a SMILES is read from it. * marks the point of attachment. EDDnp = O=[N+]([O-])c1ccc(NCCN*)c([N+](=O)[O-])c1; X1 = NCC1CCC(C[C@H](N[*:1])C(=O)[*:2])CC1; 2Abz = Nc1ccccc1C(=O)O
Assays:
Kallikrein-1 [1] = target: T1, Kallikrein-1 (Homo sapiens, UniProt P06870); test: Inhibition of human KLK1 using Pro-Phe-Arg-MCA as substrate for 2 mins by spectrophotometric analysis
T1 sequence (P06870 whole entry): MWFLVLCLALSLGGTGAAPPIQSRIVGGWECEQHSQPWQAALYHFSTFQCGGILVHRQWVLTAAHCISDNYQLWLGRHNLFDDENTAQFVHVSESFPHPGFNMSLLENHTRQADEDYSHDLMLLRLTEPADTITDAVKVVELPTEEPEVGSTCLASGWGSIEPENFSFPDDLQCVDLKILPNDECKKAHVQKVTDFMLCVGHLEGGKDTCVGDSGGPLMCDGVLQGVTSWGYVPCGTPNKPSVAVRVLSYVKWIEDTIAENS

[2] = target: T2, Prostate-specific antigen (Homo sapiens, UniProt P07288); test: Inhibition of KLK3
T2 sequence (P07288 whole entry): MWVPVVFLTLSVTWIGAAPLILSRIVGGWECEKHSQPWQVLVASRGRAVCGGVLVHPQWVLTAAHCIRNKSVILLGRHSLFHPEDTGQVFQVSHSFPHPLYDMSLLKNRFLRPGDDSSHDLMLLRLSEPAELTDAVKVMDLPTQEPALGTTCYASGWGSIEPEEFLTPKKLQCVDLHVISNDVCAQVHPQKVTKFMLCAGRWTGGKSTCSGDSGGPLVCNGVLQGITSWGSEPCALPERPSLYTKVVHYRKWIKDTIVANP

Kallikrein-1 [3] = target: T1, Kallikrein-1; test: Inhibition of human KLK1

| SMILES | Ki [2] [nM] | Ki (Kallikrein-1 [3]) [nM] | further results |
| --- | --- | --- | --- |
| CC(=O)N[C@H](CCCCN)C(=O)N[C@@H](Cc1ccccc1)C(=O)N[C@@H](Cc1ccccc1)C(=O)N1CCC[C@H]1C(=O)N[C@@H](CC(C)C)C(=O)N[C@@H](CCC(=O)O)C(N)=O | – | – | Ki (Kallikrein-1 [1]): 8 nM |
| NC(=O)[C@H](CCCN=C(N)N)NC(=O)[C@H](CO)NC(=O)[C@H](CC1CCC(N)CC1)NC(=O)Cc1ccccc1 (mixture of isomers) | – | 110 | – |

More lines, main results first:

| Ki [2] [nM] | Ki (Kallikrein-1 [3]) [nM] | SMILES | further results |
| --- | --- | --- | --- |
| 300 | – | Cc1c(-c2nc3ccccc3c(=O)o2)cccc1[N+](=O)[O-] | – |
| 500 | – | COc1ccc(C(=O)n2nc(-c3cccnc3)nc2C)cc1OC | – |
| – | 50 | N=C(N)NCCC[C@H](NC(=O)[C@H](CO)NC(=O)[C@H](CC1CCC(CN)CC1)NC(=O)[C@H](Cc1ccccc1)NC(=O)c1ccccc1N)C(=O)N[C@@H](CCC(N)=O)C(=O)NCCNc1ccc([N+](=O)[O-])cc1[N+](=O)[O-] (stereo not given in full) (H-[2Abz]F[X1]SRQ-EDDnp) | – |
